Laboratory results taken from PubChem BioAssay AID192 (DTP/NCI, 2004).
Values joined by “and” are separate entries in the source; they are usually repeats but may differ in a detail not shown here. Equal entries are not always repeated. Toxic doses and inconclusive results are not listed.

Test system: BDF1 mice, B16 melanoma ip, median survival T/C
Experiment: NCI In Vivo Anticancer Drug Screen. Data for tumor model B16 Melanoma (intraperitoneal) in B6D2F1 (BDF1) mice
Details: endpoint: median survival time, higher = longer survival
Method in brief: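 Tumor-bearing mice received test compound or vehicle. Survival or tumor size was then measured in both groups. The treated-group figure was divided by the control-group figure.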

O=C1c2ccccc2C(=O)c2c(NCCNCCO)ccc(NCCNCCO)c21
T/C (dose: 0.25 mg/kg/injection, schedule: Q01DX009 (ip), vehicle: saline with Tween-80): 124 % of control
T/C (dose: 0.25 mg/kg/injection, schedule: Q01DX009 (ip), vehicle: saline): 110 % of control and 111 % of control
T/C (dose: 0.5 mg/kg/injection, schedule: Q01DX009 (ip), vehicle: saline with Tween-80): 118 % of control
T/C (dose: 0.5 mg/kg/injection, schedule: Q01DX009 (ip), vehicle: saline): 118 % of control
T/C (dose: 1.0 mg/kg/injection, schedule: Q01DX009 (ip), vehicle: other): 124 % of control
T/C (dose: 1.0 mg/kg/injection, schedule: Q01DX009 (ip), vehicle: saline with Tween-80): 152 % of control
T/C (dose: 1.0 mg/kg/injection, schedule: Q02DX009 (ip), vehicle: saline): 159 % of control
T/C (dose: 1.0 mg/kg/injection, schedule: Q03HX016 (ip), vehicle: acid diluted with saline): 161 % of control
T/C (dose: 1.0 mg/kg/injection, schedule: Q03HX024 (ip), vehicle: acid diluted with saline): 167 % of control
T/C (dose: 2.0 mg/kg/injection, schedule: Q01DX009 (ip), vehicle: acid diluted with saline): 183 % of control and 208 % of control
T/C (dose: 2.0 mg/kg/injection, schedule: Q01DX009 (ip), vehicle: saline with Tween-80): 175 % of control
T/C (dose: 2.0 mg/kg/injection, schedule: Q01DX009 (ip), vehicle: water): 168 % of control
T/C (dose: 2.0 mg/kg/injection, schedule: Q03HX008 (ip), vehicle: acid diluted with saline): 157 % of control
T/C (dose: 2.0 mg/kg/injection, schedule: Q03HX016 (ip), vehicle: acid diluted with saline): 202 % of control
T/C (dose: 2.0 mg/kg/injection, schedule: Q03HX024 (ip), vehicle: acid diluted with saline): 209 % of control
T/C (dose: 2.0 mg/kg/injection, schedule: Q03HX024 (ip), vehicle: saline): 123 % of control
T/C (dose: 4.0 mg/kg/injection, schedule: Q01DX005 (ip), vehicle: saline): 151 % of control
T/C (dose: 4.0 mg/kg/injection, schedule: Q01DX005 (iv), vehicle: saline): 106 % of control
T/C (dose: 4.0 mg/kg/injection, schedule: Q01DX009 (ip), vehicle: Klucel (hydroxypropylcellulose) (HPC)): 180 % of control
T/C (dose: 4.0 mg/kg/injection, schedule: Q01DX009 (ip), vehicle: saline with Tween-80): 154 % of control and 188 % of control
T/C (dose: 4.0 mg/kg/injection, schedule: Q01DX009 (ip), vehicle: water): 169 % of control and 172 % of control and 211 % of control
T/C (dose: 4.0 mg/kg/injection, schedule: Q01DX009 (sc), vehicle: acid diluted with saline): 121 % of control
T/C (dose: 4.0 mg/kg/injection, schedule: Q01DX009 (sc), vehicle: saline): 108 % of control
T/C (dose: 4.0 mg/kg/injection, schedule: Q02DX009 (ip), vehicle: saline): 170 % of control and 188 % of control
T/C (dose: 4.0 mg/kg/injection, schedule: Q03HX008 (ip), vehicle: acid diluted with saline): 206 % of control
T/C (dose: 4.0 mg/kg/injection, schedule: Q03HX016 (ip), vehicle: acid diluted with saline): 204 % of control
T/C (dose: 4.0 mg/kg/injection, schedule: Q03HX024 (ip), vehicle: saline): 207 % of control
T/C (dose: 8.0 mg/kg/injection, schedule: Q01DX005 (ip), vehicle: acid diluted with saline): 192 % of control
T/C (dose: 8.0 mg/kg/injection, schedule: Q01DX005 (iv), vehicle: saline): 106 % of control
T/C (dose: 8.0 mg/kg/injection, schedule: Q01DX009 (ip), vehicle: Klucel (hydroxypropylcellulose) (HPC)): 158 % of control
T/C (dose: 8.0 mg/kg/injection, schedule: Q01DX009 (ip), vehicle: other): 180 % of control
T/C (dose: 8.0 mg/kg/injection, schedule: Q01DX009 (ip), vehicle: saline with Tween-80): 159 % of control and 190 % of control
T/C (dose: 8.0 mg/kg/injection, schedule: Q01DX009 (oral), vehicle: acid diluted with saline): 98 % of control
T/C (dose: 8.0 mg/kg/injection, schedule: Q01DX009 (sc), vehicle: acid diluted with saline): 111 % of control
T/C (dose: 8.0 mg/kg/injection, schedule: Q01DX009 (sc), vehicle: saline): 123 % of control
T/C (dose: 8.0 mg/kg/injection, schedule: Q02DX009 (ip), vehicle: saline): 191 % of control
T/C (dose: 8.0 mg/kg/injection, schedule: Q03HX008 (ip), vehicle: acid diluted with saline): 192 % of control
T/C (dose: 8.0 mg/kg/injection, schedule: Q04DX003 (ip), vehicle: acid diluted with saline): 195 % of control
T/C (dose: 8.0 mg/kg/injection, schedule: Q08DX002 (ip), vehicle: acid diluted with saline): 178 % of control
T/C (dose: 8.0 mg/kg/injection, schedule: Q08DX002 (ip), vehicle: saline): 119 % of control
T/C (dose: 16.0 mg/kg/injection, schedule: Q01DX001 (ip), vehicle: acid diluted with saline): 156 % of control
T/C (dose: 16.0 mg/kg/injection, schedule: Q01DX001 (oral), vehicle: saline): 108 % of control
T/C (dose: 16.0 mg/kg/injection, schedule: Q01DX001 (sc), vehicle: acid diluted with saline): 102 % of control
T/C (dose: 16.0 mg/kg/injection, schedule: Q01DX005 (ip), vehicle: saline): 166 % of control
T/C (dose: 16.0 mg/kg/injection, schedule: Q01DX005 (iv), vehicle: saline): 116 % of control
T/C (dose: 16.0 mg/kg/injection, schedule: Q01DX009 (ip), vehicle: Klucel (hydroxypropylcellulose) (HPC)): 173 % of control
T/C (dose: 16.0 mg/kg/injection, schedule: Q01DX009 (ip), vehicle: saline with Tween-80): 186 % of control
T/C (dose: 16.0 mg/kg/injection, schedule: Q01DX009 (oral), vehicle: acid diluted with saline): 109 % of control
T/C (dose: 16.0 mg/kg/injection, schedule: Q01DX009 (oral), vehicle: saline): 101 % of control
T/C (dose: 16.0 mg/kg/injection, schedule: Q01DX009 (sc), vehicle: acid diluted with saline): 156 % of control
T/C (dose: 16.0 mg/kg/injection, schedule: Q02DX009 (ip), vehicle: saline): 180 % of control
T/C (dose: 16.0 mg/kg/injection, schedule: Q03HX008 (ip), vehicle: acid diluted with saline): 209 % of control
T/C (dose: 16.0 mg/kg/injection, schedule: Q03HX008 (ip), vehicle: saline): 117 % of control
T/C (dose: 16.0 mg/kg/injection, schedule: Q03HX016 (ip), vehicle: acid diluted with saline): 98 % of control
T/C (dose: 16.0 mg/kg/injection, schedule: Q04DX003 (ip), vehicle: acid diluted with saline): 204 % of control
T/C (dose: 16.0 mg/kg/injection, schedule: Q08DX002 (ip), vehicle: acid diluted with saline): 173 % of control
T/C (dose: 16.0 mg/kg/injection, schedule: Q08DX002 (ip), vehicle: saline): 112 % of control
T/C (dose: 18.75 mg/kg/injection, schedule: Q01DX001 (ip), vehicle: Klucel (hydroxypropylcellulose) (HPC)): 111 % of control
T/C (dose: 32.0 mg/kg/injection, schedule: Q01DX001 (ip), vehicle: acid diluted with saline): 157 % of control
T/C (dose: 32.0 mg/kg/injection, schedule: Q01DX001 (ip), vehicle: saline): 157 % of control
T/C (dose: 32.0 mg/kg/injection, schedule: Q01DX001 (oral), vehicle: saline): 106 % of control
T/C (dose: 32.0 mg/kg/injection, schedule: Q01DX001 (sc), vehicle: acid diluted with saline): 100 % of control
T/C (dose: 32.0 mg/kg/injection, schedule: Q01DX005 (ip), vehicle: saline): 181 % of control
T/C (dose: 32.0 mg/kg/injection, schedule: Q01DX005 (iv), vehicle: saline): 119 % of control
T/C (dose: 32.0 mg/kg/injection, schedule: Q01DX009 (oral), vehicle: acid diluted with saline): 113 % of control
T/C (dose: 32.0 mg/kg/injection, schedule: Q01DX009 (oral), vehicle: saline): 112 % of control
T/C (dose: 32.0 mg/kg/injection, schedule: Q01DX009 (sc), vehicle: acid diluted with saline): 114 % of control
T/C (dose: 32.0 mg/kg/injection, schedule: Q01DX009 (sc), vehicle: saline): 100 % of control
T/C (dose: 32.0 mg/kg/injection, schedule: Q02DX009 (ip), vehicle: saline): 196 % of control
T/C (dose: 32.0 mg/kg/injection, schedule: Q04DX003 (ip), vehicle: saline): 153 % of control
T/C (dose: 32.0 mg/kg/injection, schedule: Q08DX002 (ip), vehicle: acid diluted with saline): 196 % of control
T/C (dose: 50.0 mg/kg/injection, schedule: Q01DX001 (ip), vehicle: water): 151 % of control
T/C (dose: 64.0 mg/kg/injection, schedule: Q01DX001 (ip), vehicle: acid diluted with saline): 154 % of control
T/C (dose: 64.0 mg/kg/injection, schedule: Q01DX001 (ip), vehicle: saline): 151 % of control
T/C (dose: 64.0 mg/kg/injection, schedule: Q01DX001 (oral), vehicle: acid diluted with saline): 109 % of control
T/C (dose: 64.0 mg/kg/injection, schedule: Q01DX001 (oral), vehicle: saline): 116 % of control
T/C (dose: 64.0 mg/kg/injection, schedule: Q01DX001 (sc), vehicle: acid diluted with saline): 114 % of control
T/C (dose: 64.0 mg/kg/injection, schedule: Q01DX009 (oral), vehicle: acid diluted with saline): 100 % of control
T/C (dose: 64.0 mg/kg/injection, schedule: Q01DX009 (oral), vehicle: saline): 112 % of control
T/C (dose: 64.0 mg/kg/injection, schedule: Q02DX009 (ip), vehicle: saline): 89 % of control
T/C (dose: 64.0 mg/kg/injection, schedule: Q04DX003 (ip), vehicle: saline): 213 % of control
T/C (dose: 64.0 mg/kg/injection, schedule: Q08DX002 (ip), vehicle: acid diluted with saline): 178 % of control
T/C (dose: 64.0 mg/kg/injection, schedule: Q08DX002 (ip), vehicle: saline): 179 % of control
T/C (dose: 128.0 mg/kg/injection, schedule: Q01DX001 (oral), vehicle: acid diluted with saline): 105 % of control
T/C (dose: 128.0 mg/kg/injection, schedule: Q01DX001 (oral), vehicle: saline): 106 % of control
T/C (dose: 128.0 mg/kg/injection, schedule: Q01DX009 (oral), vehicle: acid diluted with saline): 115 % of control
T/C (dose: 128.0 mg/kg/injection, schedule: Q01DX009 (oral), vehicle: saline): 112 % of control
T/C (dose: 128.0 mg/kg/injection, schedule: Q08DX002 (ip), vehicle: saline): 106 % of control
T/C (dose: 256.0 mg/kg/injection, schedule: Q01DX001 (oral), vehicle: acid diluted with saline): 96 % of control
T/C (dose: 256.0 mg/kg/injection, schedule: Q01DX001 (oral), vehicle: saline): 116 % of control
T/C (dose: 512.0 mg/kg/injection, schedule: Q01DX001 (oral), vehicle: saline): 97 % of control
